Data published in ChEMBL document CHEMBL4823244, “Synthesis of norisoboldine derivatives and bioactivity assay for inducing the generation of regulatory T cells” (Bioorg Med Chem Lett, 2021).
Calls of active or inactive are those of the source. The rule behind the calls is not given here.

Columns and labels:
[1] = test system: EL4; experiment: Cytotoxicity against mouse EL4 cells assessed as effect on cell viability at 1 to 10 uM measured after 72 hrs by MTT assay; type: cell-based; details: el4, 72 h, dose 1-10 µM
[2] = test system: Mus musculus; experiment: Induction of Treg cell differentiation in DSS- induced ulcerative colitis mouse model assessed as number of Treg cells in mesenteric lymph nodes at 40 mg/kg, po administered for 10 consecutive days by flow cytometry analysis (Rvb= 7.52%); type: functional; details: time 10 day
[3] = test system: T-cell; experiment: Induction of cell differentiation in anti-CD3/CD28 stimulated naive T-cells assessed as upregulation of Foxp3 expression at 10 uM measured after 72 hrs by Q-PCR analysis; type: functional, cell-based
[4] = test system: T-cell; experiment: Induction of cell differentiation in anti-CD3/CD28 stimulated naive T-cells assessed as number of Treg cells at 30 uM measured after 72 hrs by flow cytometry analysis (reference value: 24 %); type: functional
[5] = test system: Mus musculus; experiment: Antiinflammatory activity in DSS-induced ulcerative colitis mouse model assessed as reduction in DAI score a 20 to 40 mg/kg, po administered for 10 consecutive days; type: functional, organism-based; details: dose 20-40 mg/kg, time 10.0 day
[6] = test system: Mus musculus; experiment: Induction of Treg cell differentiation in DSS- induced ulcerative colitis mouse model assessed as number of Treg cells in mesenteric lymph nodes at 20 mg/kg, po administered for 10 consecutive days by flow cytometry analysis (Rvb= 7.52%); type: functional; details: time 10 day
[7] = test system: Mus musculus; experiment: Induction of Treg cell differentiation in DSS- induced ulcerative colitis mouse model assessed as number of Treg cells in colonic lamina proprias at 20 mg/kg, po administered for 10 consecutive days by flow cytometry analysis (Rvb= 7.97%); type: functional; details: time 10 day
[8] = test system: Mus musculus; experiment: Induction of Treg cell differentiation in DSS- induced ulcerative colitis mouse model assessed as increase in Foxp3 mRNA level at 20 to 40 mg/kg, po administered for 10 consecutive days by Q-PCR analysis; type: functional, organism-based; details: dose 20-40 mg/kg, time 10.0 day
[9] = test system: Mus musculus; experiment: Induction of Treg cell differentiation in DSS- induced ulcerative colitis mouse model assessed as number of Treg cells in spleens at 20 mg/kg, po administered for 10 consecutive days by flow cytometry analysis (Rvb= 6.49%); type: functional; details: time 10 day
[10] = test system: Mus musculus; experiment: Antiinflammatory activity in DSS-induced ulcerative colitis mouse model assessed as protection against colon destruction at 20 to 40 mg/kg, po administered for 10 consecutive days by HE staining based histopathological analysis; type: functional, organism-based; details: dose 20-40 mg/kg, time 10.0 day
[11] = test system: Mus musculus; experiment: Antiinflammatory activity in DSS-induced ulcerative colitis mouse model assessed as rescue of colon length shortening at 20 to 40 mg/kg, po administered for 10 consecutive days; type: functional, organism-based; details: dose 20-40 mg/kg, time 10.0 day
[12] = test system: T-cell; experiment: Induction of cell differentiation in anti-CD3/CD28 stimulated naive T-cells assessed as number of Treg cells at 10 uM measured after 72 hrs by flow cytometry analysis (reference value: 24 %); type: functional
[13] = test system: T-cell; experiment: Induction of cell differentiation in anti-CD3/CD28 stimulated naive T-cells assessed as upregulation of Foxp3 mRNA expression at 3 to 30 uM measured after 72 hrs by Q-PCR analysis; type: functional, cell-based; details: dose 3-30 µM
[14] = test system: T-cell; experiment: Induction of cell differentiation in anti-CD3/CD28 stimulated naive T-cells assessed as upregulation of IL-10 mRNA expression at 3 to 30 uM measured after 72 hrs by Q-PCR analysis; type: functional, cell-based; details: dose 3-30 µM
[15] = test system: T-cell; experiment: Induction of cell differentiation in anti-CD3/CD28 stimulated naive T-cells assessed as upregulation of CD4+ CD25+ cell frequency at 10 uM measured after 72 hrs by flow cytometry analysis; type: functional, cell-based
[16] = test system: Mus musculus; experiment: Induction of Treg cell differentiation in DSS- induced ulcerative colitis mouse model assessed as increase in IL-10 mRNA level at 20 to 40 mg/kg, po administered for 10 consecutive days by Q-PCR analysis; type: functional, organism-based; details: dose 20-40 mg/kg, time 10.0 day
[17] = test system: Mus musculus; experiment: Induction of Treg cell differentiation in DSS- induced ulcerative colitis mouse model assessed as number of Treg cells in spleens at 40 mg/kg, po administered for 10 consecutive days by flow cytometry analysis (Rvb= 6.49%); type: functional; details: time 10 day
[18] = test system: Mus musculus; experiment: Induction of Treg cell differentiation in DSS- induced ulcerative colitis mouse model assessed as number of Treg cells in colonic lamina proprias at 40 mg/kg, po administered for 10 consecutive days by flow cytometry analysis (Rvb= 7.97%); type: functional; details: time 10 day
[19] = test system: Mus musculus; experiment: Antiinflammatory activity in DSS-induced ulcerative colitis mouse model assessed as protection against inflammation of colons at 20 to 40 mg/kg, po administered for 10 consecutive days by HE staining based histopathological analysis; type: functional, organism-based; details: dose 20-40 mg/kg, time 10.0 day
[20] = test system: Mus musculus; experiment: Antiinflammatory activity in DSS-induced ulcerative colitis mouse model assessed as reduction in MPO activity at 20 to 40 mg/kg, po administered for 10 consecutive days; type: functional, organism-based; details: dose 20-40 mg/kg, time 10.0 day
[21] = test system: T-cell; experiment: Induction of cell differentiation in anti-CD3/CD28 stimulated naive T-cells assessed as number of Treg cells at 3 uM measured after 72 hrs by flow cytometry analysis (reference value: 24 %); type: functional

COc1cc2c(cc1O)CC1c3c(cc(OC)c(O)c3-2)CCN1C(=O)c1ccc(Br)cc1 (stereo unspecified)
Activity [1]: Non-Toxic

COc1cc(OC)cc(C(=O)N2CCc3cc(OC)c(O)c4c3C2Cc2cc(O)c(OC)cc2-4)c1 (stereo unspecified)
Activity [1]: Non-Toxic

COc1cccc(CN2CCc3cc(OC)c(O)c4c3C2Cc2cc(O)c(OC)cc2-4)c1 (stereo unspecified)
Activity [1]: Non-Toxic

COc1cc2c(cc1O)CC1c3c(cc(OC)c(O)c3-2)CCN1C(=O)c1cc(OC)c(OC)c(OC)c1 (stereo unspecified)
Activity [1]: Non-Toxic

COc1cc2c(cc1O)CC1c3c(cc(OC)c(O)c3-2)CCN1C(=O)c1ccc(Cl)cc1 (stereo unspecified)
Activity [1]: Non-Toxic

COc1cc2c(cc1O)CC1c3c(cc(OC)c(O)c3-2)CCN1C(=O)c1ccc(C)cc1 (stereo unspecified)
Activity [1]: Non-Toxic

COc1cc2c(cc1O)CC1c3c(cc(OC)c(O)c3-2)CCN1Cc1ccc(C)cc1 (stereo unspecified)
Activity [1]: Non-Toxic

COc1cc2c(cc1O)CC1c3c(cc(OC)c(O)c3-2)CCN1C(=O)c1ccc([N+](=O)[O-])cc1 (stereo unspecified)
Activity [1]: Non-Toxic

COc1cc2c(cc1O)CC1c3c(cc(OC)c(O)c3-2)CCN1C(=O)c1ccc(F)cc1 (stereo unspecified)
Activity [1]: Non-Toxic

COc1cc2c(cc1O)C[C@@H]1NCCc3cc(OC)c(O)c-2c31
Activity [2]: 14.89%
Activity [3]: Active
Activity [4]: 44.2%
Activity [5]: Active
Activity [6]: 9.8%
Activity [7]: 12.25%
Activity [8]: Active
Activity [9]: 6.58%
Activity [10]: Active
Activity [11]: Active
Activity [12]: 31.8%
Activity [1]: Non-Toxic
Activity [13]: Active
Activity [14]: Active
Activity [15]: Active
Activity [16]: Active
Activity [17]: 7.41%
Activity [18]: 15.87%
Activity [19]: Active
Activity [20]: Active
Activity [21]: 24.4%

COc1cc2c(cc1O)CC1c3c(cc(OC)c(O)c3-2)CCN1Cc1ccc(Br)cc1 (stereo unspecified)
Activity [1]: Non-Toxic
